Data as given in publication PMC10763615, “Identification and engineering of potent cyclic peptides with selective or promiscuous binding through biochemical profiling and bioinformatic data analysis” (RSC Chemical Biology, 2023).
Read-outs that look alike come from different tables or passages of the source. Positions of bridges follow the written chain, without caps; N, C: chain ends. Residues, ends and D or L forms follow the SMILES beside them.

Experiments:
Type in all cases: binding
FGF-R3C ECD = biological target: T1, FGF-R3C ECD (Homo sapiens, UniProt P22607); assay: biochemical; parameters: DNA constructs for the extracellular domain (ECD) of human FGF-; HPC4 (C); made in house; host or cells: HEK 293-6E
T1 sequence (P22607 23-375 limits assumed): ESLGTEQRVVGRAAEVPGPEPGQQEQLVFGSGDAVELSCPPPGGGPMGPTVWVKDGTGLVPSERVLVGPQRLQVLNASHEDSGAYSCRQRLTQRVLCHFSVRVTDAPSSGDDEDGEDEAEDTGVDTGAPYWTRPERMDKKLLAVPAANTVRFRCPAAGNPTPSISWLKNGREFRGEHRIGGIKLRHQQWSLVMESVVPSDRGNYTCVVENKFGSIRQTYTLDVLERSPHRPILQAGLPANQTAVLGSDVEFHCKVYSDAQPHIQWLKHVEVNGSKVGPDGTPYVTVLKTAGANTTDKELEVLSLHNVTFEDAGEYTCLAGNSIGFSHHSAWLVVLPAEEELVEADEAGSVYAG
How it was run: (§1)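 Biotinylated FGF-R ECD on streptavidin biosensors was dipped into ~1 μM crude peptide in PBS pH7.4 with 0.05% Tween-20 and 0.01% BSA for association, then into buffer for dissociation, and followed by BLI. Fitted KD values were adjusted for peptide concentration measured by UPLC-CAD.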

FGF-R1C ECD = biological target: T2, FGF-R1C ECD (Homo sapiens, UniProt P11362); assay: biochemical; parameters: DNA constructs for the extracellular domain (ECD) of human FGF-; HPC4 (C); made in house; host or cells: HEK 293-6E
T2 sequence (P11362 22-376 limits assumed): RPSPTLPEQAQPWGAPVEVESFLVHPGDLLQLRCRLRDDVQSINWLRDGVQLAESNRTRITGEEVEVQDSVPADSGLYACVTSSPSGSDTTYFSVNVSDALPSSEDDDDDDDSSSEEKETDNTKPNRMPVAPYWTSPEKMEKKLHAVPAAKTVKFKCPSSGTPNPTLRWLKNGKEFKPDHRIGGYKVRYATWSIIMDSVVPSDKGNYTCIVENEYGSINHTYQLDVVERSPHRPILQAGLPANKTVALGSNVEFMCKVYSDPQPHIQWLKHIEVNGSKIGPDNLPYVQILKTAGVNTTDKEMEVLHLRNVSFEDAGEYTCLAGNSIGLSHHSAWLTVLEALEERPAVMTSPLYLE
How it was run: as §1

FGF-R4 ECD = biological target: T3, FGF-R4 ECD (Homo sapiens, UniProt P22455); assay: single concentration BLI of crude peptides
T3 construct: DNA constructs for the extracellular domain (ECD) of human FGF-; HPC4 (C); made in house; host or cells: HEK 293-6E
T3 sequence (P22455 22-369 limits assumed): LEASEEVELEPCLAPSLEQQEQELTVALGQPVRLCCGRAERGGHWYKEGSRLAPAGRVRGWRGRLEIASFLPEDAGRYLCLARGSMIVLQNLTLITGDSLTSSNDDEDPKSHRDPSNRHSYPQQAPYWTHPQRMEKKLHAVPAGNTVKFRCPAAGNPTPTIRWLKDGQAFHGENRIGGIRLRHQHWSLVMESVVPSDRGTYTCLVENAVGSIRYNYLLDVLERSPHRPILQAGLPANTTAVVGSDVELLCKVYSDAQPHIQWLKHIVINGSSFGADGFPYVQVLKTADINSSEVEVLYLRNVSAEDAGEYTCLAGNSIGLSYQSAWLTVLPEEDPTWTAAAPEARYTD
How it was run: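 BLI, streptavidin sensors loaded with biotinylated receptor ECD. Single-point: ~1 μM crude peptide, PBS pH7.4/0.05% Tween-20/0.01% BSA; association then dissociation in buffer. KD corrected for UPLC-CAD-determined concentration.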

[1] = crude NNK peptides, single concentration BLI (Table S3), read-out: KD (4)
[2] = crude T18 selection 1 (1:1:1) peptides, single concentration BLI (Table S4), read-out: KD (4)

SMILES | Kd (FGF-R3C ECD) | Kd (FGF-R1C ECD) | Kd (FGF-R4 ECD; [1]) | Kd (FGF-R4 ECD; [2]) | Kd (FGF-R4 ECD)
CSCC[C@H](N)C(=O)N[C@H]1CSSC[C@@H](C(=O)NCC(=O)N[C@@H](CO)C(=O)NCC(=O)N[C@@H](CO)C(=O)N[C@@H](CC(=O)O)C(=O)N[C@@H](Cc2ccc(O)cc2)C(=O)N[C@@H](CCCCN)C(=O)N[C@@H](CC(=O)O)C(=O)N[C@@H](CC(=O)O)C(=O)N[C@@H](CC(=O)O)C(=O)N[C@@H](CC(=O)O)C(=O)N[C@@H](CCCCN)C(N)=O)NC(=O)[C@H](Cc2ccc(O)cc2)NC(=O)[C@H](C(C)C)NC(=O)[C@H](Cc2ccccc2)NC(=O)[C@@H]2CCCN2C(=O)[C@H](CC(C)C)NC(=O)[C@H](Cc2c[nH]c3ccccc23)NC(=O)[C@H](CO)NC(=O)[C@H](CC(=O)O)NC(=O)[C@H](Cc2ccccc2)NC(=O)[C@H](C(C)C)NC1=O (H-MCVFDSWLPFVYCGSGSDYKDDDDK-NH2; disulfide 2-13) | 0.618 µM | > 10 µM | > 10 µM | – | –
CSCC[C@H](NC(C)=O)C(=O)N[C@H]1CSSC[C@@H](C(=O)NCC(=O)N[C@@H](CO)C(=O)NCC(=O)N[C@@H](CO)C(=O)N[C@@H](CC(=O)O)C(=O)N[C@@H](Cc2ccc(O)cc2)C(=O)N[C@@H](CCCCN)C(=O)N[C@@H](CC(=O)O)C(=O)N[C@@H](CC(=O)O)C(=O)N[C@@H](CC(=O)O)C(=O)N[C@@H](CC(=O)O)C(=O)N[C@@H](CCCCN)C(N)=O)NC(=O)[C@@H]2CCCN2C(=O)[C@H](CCC(N)=O)NC(=O)[C@H](Cc2c[nH]c3ccccc23)NC(=O)[C@H](CCC(=O)O)NC(=O)[C@H](CCC(=O)O)NC(=O)[C@H]([C@@H](C)O)NC(=O)[C@H](Cc2c[nH]c3ccccc23)NC(=O)[C@H](Cc2ccccc2)NC(=O)[C@H](CCCNC(=N)N)NC(=O)[C@H]([C@@H](C)O)NC(=O)[C@H](Cc2ccc(O)cc2)NC1=O (Ac-MCYTRFWTEEWQPCGSGSDYKDDDDK-NH2; disulfide 2-14) | > 10 µM | > 10 µM | – | > 10 µM | –
CSCC[C@H](NC(C)=O)C(=O)N[C@H]1CSSC[C@@H](C(=O)NCC(=O)N[C@@H](CO)C(=O)NCC(=O)N[C@@H](CO)C(=O)N[C@@H](CC(=O)O)C(=O)N[C@@H](Cc2ccc(O)cc2)C(=O)N[C@@H](CCCCN)C(=O)N[C@@H](CC(=O)O)C(=O)N[C@@H](CC(=O)O)C(=O)N[C@@H](CC(=O)O)C(=O)N[C@@H](CC(=O)O)C(=O)N[C@@H](CCCCN)C(N)=O)NC(=O)[C@H](Cc2c[nH]cn2)NC(=O)[C@H](Cc2c[nH]c3ccccc23)NC(=O)[C@H](CC(N)=O)NC(=O)[C@H](Cc2ccc(O)cc2)NC(=O)[C@H](Cc2c[nH]cn2)NC(=O)[C@H](Cc2c[nH]cn2)NC(=O)[C@H](CO)NC(=O)[C@H](Cc2ccc(O)cc2)NC(=O)[C@H](CCC(N)=O)NC(=O)[C@H](Cc2c[nH]c3ccccc23)NC(=O)[C@H](C(C)C)NC1=O (Ac-MCVWQYSHHYNWHCGSGSDYKDDDDK-NH2; disulfide 2-14) | > 10 µM | > 10 µM | – | > 10 µM | –
CC[C@H](C)[C@@H]1NC(=O)[C@H](Cc2ccc(O)cc2)NC(=O)[C@H](CCCNC(=N)N)NC(=O)[C@H](Cc2c[nH]cn2)NC(=O)[C@@H](NC(=O)[C@H](CCSC)NC(C)=O)CSSC[C@@H](C(=O)NCC(=O)N[C@@H](CO)C(=O)NCC(=O)N[C@@H](CO)C(=O)N[C@@H](CC(=O)O)C(=O)N[C@@H](Cc2ccc(O)cc2)C(=O)N[C@@H](CCCCN)C(=O)N[C@@H](CC(=O)O)C(=O)N[C@@H](CC(=O)O)C(=O)N[C@@H](CC(=O)O)C(=O)N[C@@H](CC(=O)O)C(=O)N[C@@H](CCCCN)C(N)=O)NC(=O)[C@H](Cc2c[nH]cn2)NC(=O)[C@H](Cc2c[nH]c3ccccc23)NC(=O)[C@H](Cc2ccc(O)cc2)NC(=O)[C@H](CC(=O)O)NC(=O)[C@H](CC(C)C)NC(=O)[C@H](Cc2ccc(O)cc2)NC1=O (Ac-MCHRYIYLDYWHCGSGSDYKDDDDK-NH2; disulfide 2-13) | > 10 µM | > 10 µM | – | – | 0.044 µM
CSCC[C@H](NC(C)=O)C(=O)N[C@H]1CSSC[C@@H](C(=O)NCC(=O)N[C@@H](CO)C(=O)NCC(=O)N[C@@H](CO)C(=O)N[C@@H](CC(=O)O)C(=O)N[C@@H](Cc2ccc(O)cc2)C(=O)N[C@@H](CCCCN)C(=O)N[C@@H](CC(=O)O)C(=O)N[C@@H](CC(=O)O)C(=O)N[C@@H](CC(=O)O)C(=O)N[C@@H](CC(=O)O)C(=O)N[C@@H](CCCCN)C(N)=O)NC(=O)[C@H](Cc2c[nH]cn2)NC(=O)[C@H](CC(C)C)NC(=O)[C@H](C(C)C)NC(=O)[C@H](CCC(N)=O)NC(=O)[C@H](Cc2c[nH]c3ccccc23)NC(=O)[C@H](Cc2ccc(O)cc2)NC(=O)[C@H](CCCNC(=N)N)NC(=O)[C@H](C(C)C)NC(=O)[C@H](Cc2ccc(O)cc2)NC(=O)[C@H](Cc2ccc(O)cc2)NC(=O)[C@H](C)NC(=O)[C@H](CC(=O)O)NC1=O (Ac-MCDAYYVRYWQVLHCGSGSDYKDDDDK-NH2; disulfide 2-15) | > 10 µM | > 10 µM | – | 0.036 µM | –
CSCC[C@H](NC(C)=O)C(=O)N[C@@H](CCSC)C(=O)N[C@@H](CO)C(=O)N[C@@H](Cc1c[nH]cn1)C(=O)N[C@H]1CSSC[C@@H](C(=O)NCC(=O)N[C@@H](CO)C(=O)NCC(=O)N[C@@H](CO)C(=O)N[C@@H](CC(=O)O)C(=O)N[C@@H](Cc2ccc(O)cc2)C(=O)N[C@@H](CCCCN)C(=O)N[C@@H](CC(=O)O)C(=O)N[C@@H](CC(=O)O)C(=O)N[C@@H](CC(=O)O)C(=O)N[C@@H](CC(=O)O)C(=O)N[C@@H](CCCCN)C(N)=O)NC(=O)[C@H](CC(C)C)NC(=O)[C@H](CC(C)C)NC(=O)[C@H](C(C)C)NC(=O)[C@H](CCCCN)NC(=O)[C@H](Cc2ccccc2)NC(=O)[C@H](CC(C)C)NC(=O)[C@H](Cc2c[nH]c3ccccc23)NC1=O (Ac-MMSHCWLFKVLLCGSGSDYKDDDDK-NH2; disulfide 5-13) | > 10 µM | > 10 µM | 0.239 µM | – | –
CC[C@H](C)[C@@H]1NC(=O)[C@H](CC(C)C)NC(=O)[C@H](Cc2c[nH]c3ccccc23)NC(=O)[C@H](CCCCN)NC(=O)[C@@H]2CCCN2C(=O)[C@@H](NC(=O)[C@H](CCSC)NC(C)=O)CSSC[C@@H](C(=O)NCC(=O)N[C@@H](CO)C(=O)NCC(=O)N[C@@H](CO)C(=O)N[C@@H](CC(=O)O)C(=O)N[C@@H](Cc2ccc(O)cc2)C(=O)N[C@@H](CCCCN)C(=O)N[C@@H](CC(=O)O)C(=O)N[C@@H](CC(=O)O)C(=O)N[C@@H](CC(=O)O)C(=O)N[C@@H](CC(=O)O)C(=O)N[C@@H](CCCCN)C(N)=O)NC(=O)[C@H](CC(N)=O)NC(=O)[C@H](CC(C)C)NC(=O)[C@H](CC(C)C)NC(=O)[C@H](C(C)C)NC(=O)[C@H](CCCCN)NC1=O (Ac-MCPKWLIKVLLNCGSGSDYKDDDDK-NH2; disulfide 2-13) | > 10 µM | > 10 µM | 4.19 µM | – | –
CC[C@H](C)[C@@H]1NC(=O)[C@@H]2CCCN2C(=O)[C@H](CC(C)C)NC(=O)[C@@H]2CCCN2C(=O)[C@H](Cc2c[nH]c3ccccc23)NC(=O)[C@@H]2CCCN2C(=O)[C@H](Cc2ccccc2)NC(=O)[C@H](CCCCN)NC(=O)[C@H]([C@@H](C)O)NC(=O)[C@@H](NC(=O)[C@@H](N)CCSC)CSSC[C@@H](C(=O)NCC(=O)N[C@@H](CO)C(=O)NCC(=O)N[C@@H](CO)C(=O)N[C@@H](CC(=O)O)C(=O)N[C@@H](Cc2ccc(O)cc2)C(=O)N[C@@H](CCCCN)C(=O)N[C@@H](CC(=O)O)C(=O)N[C@@H](CC(=O)O)C(=O)N[C@@H](CC(=O)O)C(=O)N[C@@H](CC(=O)O)C(=O)N[C@@H](CCCCN)C(N)=O)NC(=O)[C@H](C)NC(=O)[C@H](Cc2c[nH]c3ccccc23)NC(=O)[C@H](Cc2ccccc2)NC1=O (H-MCTKFPWPLPIFWACGSGSDYKDDDDK-NH2; disulfide 2-15) | > 10 µM | 0.545 µM | 0.346 µM | – | –
